Measurements from US20090311217A1, “3-SUBSTITUTED-1H-INDOLE COMPOUNDS, THEIR USE AS MTOR KINASE AND PI3 KINASE INHIBITORS, AND THEIR SYNTHESES” (priority 2008, published 2009).
Read-outs that look alike come from different tables or passages of the source.

Columns and labels:
Format in all cases: biochemical
[1] = biological target: PI3K-delta (Homo sapiens, UniProt O00329); assay: PI3K-delta fluorescence polarization assay; details: read-out: PI3Kδ Avg. IC50
[2] = biological target: PI3K-alpha (Homo sapiens, UniProt P42336); assay: PI3K-alpha fluorescence polarization assay
[3] = biological target: PI3K-gamma (Homo sapiens, UniProt P48736); assay: PI3K-gamma fluorescence polarization assay; details: PI3Kγ Avg. IC50
Outline: (§1)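 FP competition read-out: PIP3 produced displaces BODIPY-TMR-IP4 (5 nM) from GST-GRP1 PH domain (100 nM). Kinase step: 5 ng enzyme, 2.5 μM diC8-PIP2, 25 μM ATP, pH 7 HEPES/MgCl2, 1 h, 25° C; EDTA stop.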

[4] = biological target: PI3K-beta (Homo sapiens, UniProt P42338); assay: PI3K-beta fluorescence polarization assay; details: read-out: PI3Kβ Avg. IC50
Outline: as §1

[5] = biological target: T1, human TOR (Homo sapiens, UniProt P42345); assay: mTOR enzyme assay (DELFIA, His6-S6K substrate)
T1 construct: FLAG

[6] = read-out: mTOR Kinase Avg. IC50

Chain of PI3K-delta (O00329 whole entry, species assumed): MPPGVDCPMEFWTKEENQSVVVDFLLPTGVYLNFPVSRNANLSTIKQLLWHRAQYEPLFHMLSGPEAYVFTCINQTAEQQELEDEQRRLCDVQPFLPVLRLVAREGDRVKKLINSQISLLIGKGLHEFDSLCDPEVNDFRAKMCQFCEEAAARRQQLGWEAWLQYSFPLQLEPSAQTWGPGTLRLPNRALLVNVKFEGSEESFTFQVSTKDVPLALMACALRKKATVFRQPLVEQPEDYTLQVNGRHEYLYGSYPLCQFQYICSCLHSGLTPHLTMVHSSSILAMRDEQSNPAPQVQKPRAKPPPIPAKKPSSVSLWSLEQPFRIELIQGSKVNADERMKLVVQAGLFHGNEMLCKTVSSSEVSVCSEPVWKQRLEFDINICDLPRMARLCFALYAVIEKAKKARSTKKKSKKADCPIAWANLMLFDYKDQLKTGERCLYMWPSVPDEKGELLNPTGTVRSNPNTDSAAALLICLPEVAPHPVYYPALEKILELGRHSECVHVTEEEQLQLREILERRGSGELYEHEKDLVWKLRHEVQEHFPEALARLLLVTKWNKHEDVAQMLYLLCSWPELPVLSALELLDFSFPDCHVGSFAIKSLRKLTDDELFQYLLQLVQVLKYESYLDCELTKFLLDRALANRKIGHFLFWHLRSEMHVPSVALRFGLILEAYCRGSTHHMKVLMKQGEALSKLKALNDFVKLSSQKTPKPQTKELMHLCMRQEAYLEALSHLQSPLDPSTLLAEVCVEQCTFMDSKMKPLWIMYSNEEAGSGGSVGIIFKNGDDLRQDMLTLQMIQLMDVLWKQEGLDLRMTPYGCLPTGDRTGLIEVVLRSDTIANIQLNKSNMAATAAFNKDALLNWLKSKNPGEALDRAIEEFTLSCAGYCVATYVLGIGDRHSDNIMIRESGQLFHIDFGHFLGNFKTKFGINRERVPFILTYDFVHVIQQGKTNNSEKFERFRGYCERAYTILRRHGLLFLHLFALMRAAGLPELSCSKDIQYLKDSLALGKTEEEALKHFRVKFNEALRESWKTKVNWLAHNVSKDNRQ
Chain of PI3K-delta (P27986 whole entry partner, species assumed): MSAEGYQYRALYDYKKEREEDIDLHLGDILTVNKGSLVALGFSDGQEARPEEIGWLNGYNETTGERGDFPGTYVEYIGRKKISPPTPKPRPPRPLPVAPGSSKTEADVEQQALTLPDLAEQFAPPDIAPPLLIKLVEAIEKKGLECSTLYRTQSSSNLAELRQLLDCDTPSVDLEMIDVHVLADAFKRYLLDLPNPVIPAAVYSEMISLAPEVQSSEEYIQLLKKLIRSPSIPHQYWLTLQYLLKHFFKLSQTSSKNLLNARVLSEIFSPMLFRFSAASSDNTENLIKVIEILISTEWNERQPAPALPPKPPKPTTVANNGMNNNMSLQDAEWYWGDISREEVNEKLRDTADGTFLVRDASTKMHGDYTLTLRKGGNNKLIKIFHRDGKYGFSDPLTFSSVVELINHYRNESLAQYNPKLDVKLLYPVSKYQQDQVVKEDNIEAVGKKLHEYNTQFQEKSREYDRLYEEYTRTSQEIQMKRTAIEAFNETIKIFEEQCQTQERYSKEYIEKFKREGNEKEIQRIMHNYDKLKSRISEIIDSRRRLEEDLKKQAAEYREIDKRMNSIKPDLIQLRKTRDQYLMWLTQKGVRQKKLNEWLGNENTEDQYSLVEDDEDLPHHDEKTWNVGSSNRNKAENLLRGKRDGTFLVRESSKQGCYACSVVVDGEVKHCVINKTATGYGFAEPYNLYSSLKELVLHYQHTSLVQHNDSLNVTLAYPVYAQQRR
Chain of PI3K-beta (P42338 whole entry, species assumed): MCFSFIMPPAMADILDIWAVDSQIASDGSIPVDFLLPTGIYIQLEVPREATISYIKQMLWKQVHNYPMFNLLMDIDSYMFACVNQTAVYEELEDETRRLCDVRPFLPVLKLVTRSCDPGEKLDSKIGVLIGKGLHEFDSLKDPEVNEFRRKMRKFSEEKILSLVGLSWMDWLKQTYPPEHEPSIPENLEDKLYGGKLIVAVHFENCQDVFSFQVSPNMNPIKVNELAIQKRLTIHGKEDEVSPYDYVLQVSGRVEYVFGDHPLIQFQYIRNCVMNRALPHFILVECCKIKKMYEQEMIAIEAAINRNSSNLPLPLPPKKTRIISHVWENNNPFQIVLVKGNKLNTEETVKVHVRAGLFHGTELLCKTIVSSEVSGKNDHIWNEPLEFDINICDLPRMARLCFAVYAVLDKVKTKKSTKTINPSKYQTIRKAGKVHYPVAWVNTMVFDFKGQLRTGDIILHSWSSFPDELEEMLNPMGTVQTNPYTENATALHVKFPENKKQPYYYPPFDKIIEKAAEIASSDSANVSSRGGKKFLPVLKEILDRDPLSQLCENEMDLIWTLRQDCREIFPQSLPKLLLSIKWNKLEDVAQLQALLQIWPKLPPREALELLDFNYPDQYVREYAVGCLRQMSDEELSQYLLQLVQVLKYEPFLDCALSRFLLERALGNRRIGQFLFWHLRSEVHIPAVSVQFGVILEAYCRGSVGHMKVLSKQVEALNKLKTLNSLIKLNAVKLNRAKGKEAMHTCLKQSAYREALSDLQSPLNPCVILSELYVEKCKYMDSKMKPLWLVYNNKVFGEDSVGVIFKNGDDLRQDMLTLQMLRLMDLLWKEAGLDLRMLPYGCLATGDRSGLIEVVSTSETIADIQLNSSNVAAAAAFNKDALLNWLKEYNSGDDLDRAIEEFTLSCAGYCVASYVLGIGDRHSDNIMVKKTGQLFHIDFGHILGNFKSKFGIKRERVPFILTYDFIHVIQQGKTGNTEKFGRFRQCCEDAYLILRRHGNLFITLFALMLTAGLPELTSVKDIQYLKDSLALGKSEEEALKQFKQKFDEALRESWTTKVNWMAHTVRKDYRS
Chain of PI3K-beta (P27986 whole entry partner, species assumed): as the sequence (P27986 whole entry partner, species assumed) above
Chain of PI3K-alpha (P42336 whole entry, species assumed): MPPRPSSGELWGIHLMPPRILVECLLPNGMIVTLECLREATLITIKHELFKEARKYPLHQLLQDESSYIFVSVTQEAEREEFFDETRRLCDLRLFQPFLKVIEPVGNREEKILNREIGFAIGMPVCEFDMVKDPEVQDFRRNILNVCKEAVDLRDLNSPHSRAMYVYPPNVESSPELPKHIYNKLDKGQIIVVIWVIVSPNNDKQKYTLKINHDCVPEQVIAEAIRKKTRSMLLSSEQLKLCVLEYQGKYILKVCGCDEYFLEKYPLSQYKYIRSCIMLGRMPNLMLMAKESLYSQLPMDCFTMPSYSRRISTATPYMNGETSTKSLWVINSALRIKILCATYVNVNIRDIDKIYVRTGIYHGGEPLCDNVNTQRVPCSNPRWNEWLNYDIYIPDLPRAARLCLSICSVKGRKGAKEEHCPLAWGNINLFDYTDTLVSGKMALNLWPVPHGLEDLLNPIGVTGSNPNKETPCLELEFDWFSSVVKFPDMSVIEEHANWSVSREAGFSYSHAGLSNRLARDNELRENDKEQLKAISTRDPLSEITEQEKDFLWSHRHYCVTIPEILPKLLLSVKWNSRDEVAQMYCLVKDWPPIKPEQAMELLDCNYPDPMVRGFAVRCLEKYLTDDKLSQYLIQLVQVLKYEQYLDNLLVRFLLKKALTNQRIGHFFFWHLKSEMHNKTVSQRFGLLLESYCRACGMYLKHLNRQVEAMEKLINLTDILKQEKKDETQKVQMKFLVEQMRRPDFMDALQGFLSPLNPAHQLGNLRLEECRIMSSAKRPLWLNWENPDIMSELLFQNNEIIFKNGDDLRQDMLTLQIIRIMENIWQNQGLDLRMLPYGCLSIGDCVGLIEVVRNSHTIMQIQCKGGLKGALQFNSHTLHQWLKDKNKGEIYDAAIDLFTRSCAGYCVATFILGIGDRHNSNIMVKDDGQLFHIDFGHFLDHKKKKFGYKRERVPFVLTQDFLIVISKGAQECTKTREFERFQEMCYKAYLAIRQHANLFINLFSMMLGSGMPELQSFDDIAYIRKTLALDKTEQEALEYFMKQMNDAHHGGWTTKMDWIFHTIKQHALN
Chain of PI3K-alpha (P27986 whole entry partner, species assumed): as the sequence (P27986 whole entry partner, species assumed) above
Chain of PI3K-gamma (P48736 whole entry, species assumed, the tested form may be a part): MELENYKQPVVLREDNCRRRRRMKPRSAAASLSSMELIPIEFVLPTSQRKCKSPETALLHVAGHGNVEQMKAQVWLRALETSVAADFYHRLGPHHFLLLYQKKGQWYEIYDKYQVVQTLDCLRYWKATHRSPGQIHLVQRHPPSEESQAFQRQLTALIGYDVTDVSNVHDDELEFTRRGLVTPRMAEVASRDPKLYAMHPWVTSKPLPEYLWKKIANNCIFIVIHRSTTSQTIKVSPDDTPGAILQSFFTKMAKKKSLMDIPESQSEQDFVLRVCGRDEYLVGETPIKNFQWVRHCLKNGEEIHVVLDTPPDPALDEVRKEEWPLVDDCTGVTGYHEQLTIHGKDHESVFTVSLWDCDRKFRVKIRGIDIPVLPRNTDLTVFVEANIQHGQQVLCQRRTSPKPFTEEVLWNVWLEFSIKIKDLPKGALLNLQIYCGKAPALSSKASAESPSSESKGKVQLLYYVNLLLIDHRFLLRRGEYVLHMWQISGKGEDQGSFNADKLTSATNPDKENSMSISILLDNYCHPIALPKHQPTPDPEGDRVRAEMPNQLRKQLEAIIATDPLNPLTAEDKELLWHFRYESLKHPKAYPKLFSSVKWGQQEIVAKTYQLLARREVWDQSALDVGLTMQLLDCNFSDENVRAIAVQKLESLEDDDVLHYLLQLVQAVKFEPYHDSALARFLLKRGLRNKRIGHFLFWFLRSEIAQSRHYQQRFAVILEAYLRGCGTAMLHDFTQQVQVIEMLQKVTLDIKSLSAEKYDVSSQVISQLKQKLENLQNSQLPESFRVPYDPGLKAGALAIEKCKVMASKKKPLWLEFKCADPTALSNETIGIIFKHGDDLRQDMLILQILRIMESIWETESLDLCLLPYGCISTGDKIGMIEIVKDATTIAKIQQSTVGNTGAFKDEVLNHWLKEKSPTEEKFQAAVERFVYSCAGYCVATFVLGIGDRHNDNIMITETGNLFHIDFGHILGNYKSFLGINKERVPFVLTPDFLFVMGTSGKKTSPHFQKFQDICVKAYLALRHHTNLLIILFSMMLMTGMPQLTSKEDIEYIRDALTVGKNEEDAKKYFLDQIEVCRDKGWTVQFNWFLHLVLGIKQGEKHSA

Structure (SMILES) | IC50 [1] | IC50 ([2]; read-out: PI3Kα Avg. IC50) | IC50 [3] | IC50 [4] | IC50 [5, 6] | IC50 ([2]; PI3Kα Avg. IC50) | IC50 ([5]; mTOR Kinase Avg. IC50)
COc1ccc2[nH]c(C)c(C=C3Oc4cc(O)cc(O)c4C3=O)c2c1 [Example 73, 4,6-dihydroxy-2-[(5-methoxy-2-methyl-1H-indol-3-yl)methylene]-1-benzofuran-3(2H)-one] | 5.8 nM | 2.7 nM | 25 nM | 8 nM | 2.7 nM |  | 
COc1ccc2c(c1)c(/C=C1\Oc3cc(O)cc(C)c3C1=O)c(C)n2CCN1CCN(C)CC1 [Example 338, (2Z)-6-Hydroxy-2-({5-methoxy-2-methyl-1-[2-(4-methylpiperazin-1-yl)ethyl]-1H-indol-3-yl}methylene)-4-methyl-1-benzofuran-3(2H)-one] | 3 nM | 22 nM | 666 nM | 57.7 nM | > 160 nM |  | 
COc1ccc2c(c1)c(C=C1Oc3cc(O)cc(O)c3C1=O)cn2CCCCN(C)C [Example 116, 2-({1-[4-(dimethylamino)butyl]-5-methoxy-1H-indol-3-yl}methylene)-4,6-dihydroxy-1-benzofuran-3(2H)-one] | 5 nM | 37 nM | 1340 nM | 119 nM | 1420 nM |  | 
O=C1/C(=C/c2c(-c3ccc4ccccc4c3)[nH]c3ccccc23)Oc2c1ccc(O)c2O [Example 55, (2Z)-6,7-dihydroxy-2-{[2-(2-naphthyl)-1H-indol-3-yl]methylene}-1-benzofuran-3(2H)-one] | 32 nM | 72.7 nM | 716 nM | 72 nM | 10000 nM |  | 
COc1cc2c(C=C3Oc4cc(O)cc(O)c4C3=O)c(C)[nH]c2cc1C [Example 184, 4,6-dihydroxy-2-[(5-methoxy-2,6-dimethyl-1H-indol-3-yl)methylene]-1-benzofuran-3(2H)-one] | 193 nM | 102 nM | 544 nM | 155 nM | 190 nM |  | 
COc1ccc2c(c1)c(C=C1Oc3cc(O)cc(O)c3C1=O)cn2CCCN1CCOCC1 [Example 112, 4,6-dihydroxy-2-{[5-methoxy-1-(3-morpholin-4-ylpropyl)-1H-indol-3-yl]methylene}-1-benzofuran-3(2H)-one] | 6 nM |  | 646 nM | 181 nM |  | 42 nM | 430 nM
COc1ccc2c(c1)c(/C=C1\Oc3cc(O)cc(O)c3C1=O)c(C(F)(F)F)n2CCN1CCN(C)CC1 [Example 336, (2Z)-4,6-Dihydroxy-2-({5-methoxy-1-[2-(4-methylpiperazin-1-yl)ethyl]-2-(trifluoromethyl)-1H-indol-3-yl}methylene)-1-benzofuran-3(2H)-one] | 1 nM | 4 nM | 61.7 nM | 4.1 nM | < 22 nM |  | 
COc1ccc2[nH]c(-c3ccccc3)c(/C=C3\Oc4cccc(O)c4C3=O)c2c1 [Example 304, (2Z)-4-Hydroxy-2-[(5-methoxy-2-phenyl-1H-indol-3-yl)methylene]-1-benzofuran-3(2H)-one] | 17 nM | 54 nM | 65 nM | 128 nM | 62 nM |  | 
COc1ccc2c(c1)c(C=C1Oc3cc(O)cc(O)c3C1=O)c(C)n2CCCN1CCN(CCO)CC1 [Example 103, 4,6-dihydroxy-2-[(1-{3-[4-(2-hydroxyethyl)piperazin-1-yl]propyl}-5-methoxy-2-methyl-1H-indol-3-yl)methylene]-1-benzofuran-3(2H)-one] | 2 nM | 6.6 nM | 108 nM | 22 nM | 108 nM |  | 
COc1ccc2[nH]c(-c3cncnc3)c(/C=C3\Oc4cc(O)cc(O)c4C3=O)c2c1 [Example 354, (2Z)-4,6-Dihydroxy-2-[(5-methoxy-2-pyrimidin-5-yl-1H-indol-3-yl)methylene]-1-benzofuran-3(2H)-one] | 14.5 nM | 6.5 nM | 55 nM | 44 nM | 18 nM |  | 
COc1ccc2c(c1)c(C=C1Oc3cc(O)cc(O)c3C1=O)c(C)n2CCN(C)C [Example 110, 2-({1-[2-(dimethylamino)ethyl]-5-methoxy-2-methyl-1H-indol-3-yl}methylene)-4,6-dihydroxy-1-benzofuran-3(2H)-one] | 6.5 nM | 9.3 nM | 283 nM | 32 nM | 17.5 nM |  | 
COc1ccc2c(c1)c(/C=C1\Oc3cc(O)cc(O)c3C1=O)c(C(F)(F)F)n2CCO [Example 332, (2Z)-4,6-Dihydroxy-2-{[1-(2-hydroxyethyl)-5-methoxy-2-(trifluoromethyl)-1H-indol-3-yl]methylene}-1-benzofuran-3(2H)-one] | 7.8 nM | 5 nM | 22 nM | 13.3 nM | < 21 nM |  | 
COc1ccc2c(c1)c(/C=C1\Oc3cc(O)ccc3C1=O)c(C)n2CCN1CCN(C)CC1 [Example 303, (2Z)-6-Hydroxy-2-({5-methoxy-2-methyl-1-[2-(4-methylpiperazin-1-yl)ethyl]-1H-indol-3-yl}methylene)-1-benzofuran-3(2H)-one] | < 2 nM | 2.2 nM | 70 nM | 3.5 nM | 1.93 nM |  | 
COc1ccc2c(c1)c(C=C1Oc3cc(O)cc(O)c3C1=O)c(C)n2CCCCN1CCOCC1 [Example 97, 4,6-dihydroxy-2-{[5-methoxy-2-methyl-1-(4-morpholin-4-ylbutyl)-1H-indol-3-yl]methylene}-1-benzofuran-3(2H)-one] | 0.9 nM | 8.7 nM | 138 nM | 9 nM | < 47 nM |  | 
COc1ccc2c(c1)c(C=C1Oc3cc(O)cc(O)c3C1=O)c(C)n2CCCCN1CCN(CCN2CCOCC2)CC1 [Example 100, 4,6-dihydroxy-2-[(5-methoxy-2-methyl-1-{4-[4-(2-morpholin-4-ylethyl)piperazin-1-yl]butyl}-1H-indol-3-yl)methylene]-1-benzofuran-3(2H)-one] | 3 nM | 12 nM | 283 nM | 12.5 nM | 55.5 nM |  | 
COc1ccc2c(c1)c(C=C1Oc3cc(O)cc(O)c3C1=O)c(C)n2CCCCN(C)C [Example 101, 2-({1-[4-(dimethylamino)butyl]-5-methoxy-2-methyl-1H-indol-3-yl}methylene)-4,6-dihydroxy-1-benzofuran-3(2H)-one] | 1 nM | 5.3 nM | 377 nM | 6.5 nM | 46 nM |  | 
COC(=O)c1ccc2[nH]cc(C=C3Oc4cc(O)cc(O)c4C3=O)c2c1 [Example 166, methyl 3-[(4,6-dihydroxy-3-oxo-1-benzofuran-2(3H)-ylidene)methyl]-1H-indole-5-carboxylate] | 59 nM | 28 nM | 180 nM | 46 nM | 1700 nM |  | 
COc1ccc2c(c1)c(C=C1Oc3cc(O)cc(O)c3C1=O)c(C)n2CCCN1CCN(CCN2CCOCC2)CC1 [Example 105, 4,6-dihydroxy-2-[(5-methoxy-2-methyl-1-{3-[4-(2-morpholin-4-ylethyl)piperazin-1-yl]propyl}-1H-indol-3-yl)methylene]-1-benzofuran-3(2H)-one] | 2 nM | 9.6 nM | 724 nM | 50.5 nM | 140 nM |  | 
COc1ccc2c(c1)c(/C=C1\Oc3cc(O)ccc3C1=O)c(C1CC1)n2CCN1CCN(C)CC1 [Example 362, (2Z)-2-({2-Cyclopropyl-5-methoxy-1-[2-(4-methylpiperazin-1-yl)ethyl]-1H-indol-3-yl}methylene)-6-hydroxy-1-benzofuran-3(2H)-one] | 1.5 nM | 10.5 nM | 329 nM | 8 nM | 210 nM |  | 
COc1ccc2[nH]c(-c3cccnc3)c(C=C3Oc4cc(O)cc(O)c4C3=O)c2c1 [Example 91, 4,6-dihydroxy-2-[(5-methoxy-2-pyridin-3-yl-1H-indol-3-yl)methylene]-1-benzofuran-3(2H)-one] | 1.8 nM | < 2.2 nM | 9.5 nM | 5.5 nM | < 50 nM |  | 
COc1ccc2c(c1)c(/C=C1\Oc3cc(O)cc(O)c3C1=O)c(C1CC1)n2CCN1CCC(O)C1 (stereo not shown) [Example 342, (2Z)-2-({2-Cyclopropyl-1-[2-(3-hydroxypyrrolidin-1-yl)ethyl]-5-methoxy-1H-indol-3-yl}methylene)-4,6-dihydroxy-1-benzofuran-3(2H)-one] | 1.5 nM | 4.3 nM | 32.5 nM | 16.3 nM | 6.7 nM |  | 
COc1ccc2c(c1)c(/C=C1\Oc3cc(O)cc(O)c3C1=O)c(-c1c(C)noc1C)n2CCN1CCN(C)CC1 [Example 344, (2Z)-2-({2-(3,5-Dimethylisoxazol-4-yl)-5-methoxy-1-[2-(4-methylpiperazin-1-yl)ethyl]-1H-indol-3-yl}methylene)-4,6-dihydroxy-1-benzofuran-3(2H)-one] | 0.9 nM | 4.4 nM | 99 nM | 5.9 nM | 5.25 nM |  | 
COc1ccc2c(c1)c(C=C1Oc3cc(O)cc(O)c3C1=O)c(C)n2CCN1CCOCC1 [Example 107, 4,6-dihydroxy-2-{[5-methoxy-2-methyl-1-(2-morpholin-4-ylethyl)-1H-indol-3-yl]methylene}-1-benzofuran-3(2H)-one] | 5.8 nM |  | 154 nM | 112 nM | < 25 nM | 11.3 nM | 
